According to ChEMBL document CHEMBL1201862, “PubChem BioAssay data set” (2004):
Activity calls are given as the source filed them.

Experiments:
[1] = biological target: NACHT, LRR and PYD domains-containing protein 3 (Homo sapiens, UniProt Q96P20); test: NALP3 inhibitors in yeast, dose response, luminescent (AID 488799); assay type: functional
[2] = biological target: T1, Protein skinhead-1 (Caenorhabditis elegans, UniProt P34707); assay type: functional
T1 sequence (P34707 whole entry): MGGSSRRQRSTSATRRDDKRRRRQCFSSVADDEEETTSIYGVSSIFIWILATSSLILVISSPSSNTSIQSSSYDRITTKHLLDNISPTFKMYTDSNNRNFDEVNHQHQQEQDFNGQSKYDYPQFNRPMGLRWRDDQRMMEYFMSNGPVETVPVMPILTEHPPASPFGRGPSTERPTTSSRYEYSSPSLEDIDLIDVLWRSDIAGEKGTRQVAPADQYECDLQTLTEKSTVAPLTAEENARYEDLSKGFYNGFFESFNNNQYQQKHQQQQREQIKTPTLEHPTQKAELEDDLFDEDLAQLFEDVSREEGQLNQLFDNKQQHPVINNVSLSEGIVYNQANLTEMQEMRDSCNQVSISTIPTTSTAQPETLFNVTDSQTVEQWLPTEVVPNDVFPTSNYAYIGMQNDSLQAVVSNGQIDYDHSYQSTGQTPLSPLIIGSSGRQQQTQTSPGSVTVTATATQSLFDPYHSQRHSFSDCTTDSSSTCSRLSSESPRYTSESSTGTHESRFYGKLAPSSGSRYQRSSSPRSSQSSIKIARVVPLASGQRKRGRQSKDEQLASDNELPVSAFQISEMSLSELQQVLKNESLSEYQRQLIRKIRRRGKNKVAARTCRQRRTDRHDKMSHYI

[3] = biological target: Cystic fibrosis transmembrane conductance regulator/Golgi-associated PDZ and coiled-coil motif-containing protein (Homo sapiens, UniProt P13569+Q9HD26); test: potency against CAL PDZ-peptide interaction – biochemical, fluorescence polarization, Cerulean-tagged CAL PDZ, cherry-picks, dose response (AID 504773)
[4] = biological target: Intestinal-type alkaline phosphatase (Homo sapiens, UniProt P09923); test: Dose Response confirmation of uHTS hits from a small molecule inhibitors of human intestinal alkaline phosphatase via a luminescent assay. [Related pubchem assays (depositor defined):AID2544, AID2574]; assay type: functional
[5] = NIH-3T3 fibroblast cytotoxicity, dose response, cytotoxicity control, cell-based, fluorescence, Alamar Blue, secondary assay (AID 2327); assay type: functional;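 further: NIH-3T3 mouse fibroblasts cultured with fluconazole at 8 µg/mL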
[6] = cells; assay type: functional
[7] = biological target: T2, Streptokinase A (Streptococcus pyogenes serotype M1, UniProt P10520); test: viability-normalized secreted streptokinase activity reduction – plasminogen activation absorbance, OD405, dose response (AID 1914); assay type: functional, Streptococcus pyogenes M1 GAS;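 further: secreted streptokinase activity via plasminogen activation per viability signal from cell pellet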
T2 sequence (P10520 whole entry): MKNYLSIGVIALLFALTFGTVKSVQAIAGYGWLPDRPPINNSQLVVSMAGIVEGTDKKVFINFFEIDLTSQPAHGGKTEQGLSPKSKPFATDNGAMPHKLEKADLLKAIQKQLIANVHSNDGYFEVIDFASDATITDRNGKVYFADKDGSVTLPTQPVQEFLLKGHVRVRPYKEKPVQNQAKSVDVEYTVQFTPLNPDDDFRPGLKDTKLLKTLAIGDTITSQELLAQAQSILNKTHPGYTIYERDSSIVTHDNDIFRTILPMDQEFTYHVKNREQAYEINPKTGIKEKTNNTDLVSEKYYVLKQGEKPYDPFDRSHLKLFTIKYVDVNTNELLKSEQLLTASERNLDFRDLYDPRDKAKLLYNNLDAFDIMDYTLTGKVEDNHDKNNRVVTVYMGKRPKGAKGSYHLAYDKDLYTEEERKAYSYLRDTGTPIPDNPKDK

[8] = tested on: Streptococcus; test: GAS UMAA2166 growth inhibition – luminescence, BacTiterGlo, counter-screen for streptokinase expression inhibitor project, dose response (AID 1915); assay type: functional, organism-based;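 further: potency for reduction of bacterial viability or growth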
[9] = tested on: Streptococcus sp. 'group A'; test: Streptococcus pyogenes SK(-)GAS viability under kanamycin – luminescence, BacTiterGlo, confirmation, counter-screen for streptokinase expression inhibitor project, dose response (AID 1900); assay type: functional, organism-based
[10] = biological target: Beta-galactosidase (Escherichia coli, UniProt Q8VNN2); test: detection-enzyme interference by beta-gal modulators – biochemical, E. coli enzyme, set 3, artefact control for CCR6 antagonist project, dose response (AID 504712); assay type: functional
[11] = Vero E6 cell cytotoxicity, dose response, cytotoxicity control for non-replicating M. tuberculosis project, secondary assay (AID 492998); assay type: functional, VeroE6; conditions: Vero C1008
[12] = THP-1 cell cytotoxicity, dose response, cytotoxicity control for non-replicating M. tuberculosis project (AID 489025); assay type: functional
[13] = HepG2 cell cytotoxicity, dose response, cytotoxicity control for non-replicating M. tuberculosis project (AID 489018); assay type: functional; conditions: Mycobacterium tuberculosis
[14] = fluconazole-exposed Candida albicans growth modulators – fluorescence, retest, confirmation (AID 2467); assay type: functional, cell-based
[15] = biological target: T3, Ubiquitin-conjugating enzyme E2 N (Homo sapiens, UniProt P61088); assay type: functional;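 further: Dose-response confirmation in a TR-FRET assay detecting UBC13-driven polyubiquitin chain formation, inhibition measured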
T3 sequence (P61088 whole entry): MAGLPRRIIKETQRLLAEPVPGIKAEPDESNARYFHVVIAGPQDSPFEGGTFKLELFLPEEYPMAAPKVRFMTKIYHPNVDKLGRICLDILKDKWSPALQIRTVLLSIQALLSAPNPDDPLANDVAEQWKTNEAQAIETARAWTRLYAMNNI

[16] = biological target: Cyclin-dependent kinase 5/CDK5 activator 1 (Homo sapiens, UniProt Q00535); test: blockade of human CDK5 activity – biochemical, cherry-picked samples, set 2, dose response (AID 504545)
[17] = biological target: T4, Voltage-dependent T-type calcium channel subunit alpha-1H (Homo sapiens, UniProt O95180); test: Inhibitors of T-Type Calcium Channels. [Related pubchem assays (depositor defined):AID449739, AID463087, AID489005, AID493041, AID504579, AID504584, AID504619, AID504628]; assay type: functional
[18] = biological target: T4, Voltage-dependent T-type calcium channel subunit alpha-1H; assay type: functional
[19] = viability of uninfected HEp-2 cells – cell-based, HTS, cytotoxicity control for RSV inhibitor project, dose response (AID 2410); assay type: functional; conditions: human respiratory syncytial virus
[20] = biological target: FAD-linked sulfhydryl oxidase ALR (Homo sapiens, UniProt P55789); test: ALR-catalysed DTT oxidation blockers – biochemical, H2O2 detection, luminescence, cherry-pick, dose response (AID 493248)
[21] = biological target: Envelope glycoprotein gp160 (Human immunodeficiency virus 1, UniProt Q6QLK5); test: cell-free HIV fusion peptide-binding blockers – biochemical, uHTS, fluorescence dequenching, […] (AID 1986)
[22] = tested on: Vero; test: cells; assay type: functional; conditions: Chlorocebus sabaeus
[23] = viability of HCT116 lacking mutant beta-catenin – cell-based, human colon tumor, dose response (AID 1045); assay type: functional;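 further: HCT116 colon tumor cells with beta catenin knocked out; cells exposed to compound for 60 hours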
[24] = viability of PTEN-deleted HCT116 cells – cell-based, HCT116 PTEN knockout, dose response (AID 1047); assay type: functional;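 further: HCT116 colon tumor cells with PTEN knocked out; cells exposed to compound for 60 hours before readout; potency for loss of cell viability measured by luminescence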
[25] = biological target: Neurotensin receptor type 1 (Homo sapiens, UniProt P30989); assay type: functional;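 further: Image-based confirmatory dose-response assay measuring agonist activity at NTR1; NTR1-expressing U2OS osteosarcoma cells imaged for beta-arrestin GFP spot formation; agonist potency where compounds increase beta-arrestin recruitment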
[26] = biological target: T5, Neuropeptide Y receptor type 2 (Homo sapiens, UniProt P49146); assay type: functional, cell-based;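 further: HEK293 cells expressing the receptor and a CNG channel; stimulus was NPY near EC95 followed by isoproterenol to raise cAMP; antagonist potency measured as restoring cAMP signal that NPY suppresses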
T5 sequence (P49146 whole entry): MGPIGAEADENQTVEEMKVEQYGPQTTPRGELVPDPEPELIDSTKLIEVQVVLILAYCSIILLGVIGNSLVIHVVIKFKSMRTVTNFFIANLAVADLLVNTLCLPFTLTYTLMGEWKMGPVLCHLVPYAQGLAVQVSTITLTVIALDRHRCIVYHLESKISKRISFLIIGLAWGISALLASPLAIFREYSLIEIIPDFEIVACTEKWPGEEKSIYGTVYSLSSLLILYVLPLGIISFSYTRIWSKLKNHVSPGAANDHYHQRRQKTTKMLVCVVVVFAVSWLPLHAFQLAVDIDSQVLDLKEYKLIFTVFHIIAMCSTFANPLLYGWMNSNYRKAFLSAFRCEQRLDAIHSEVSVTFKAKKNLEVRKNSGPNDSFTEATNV

[27] = biological target: T6, Neuropeptide Y receptor type 1 (Homo sapiens, UniProt P25929); assay type: functional;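 further: HEK293 cells with a CNG channel challenged with NPY then isoproterenol; potency as antagonist that reverses NPY suppression of cAMP signal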
T6 sequence (P25929 whole entry): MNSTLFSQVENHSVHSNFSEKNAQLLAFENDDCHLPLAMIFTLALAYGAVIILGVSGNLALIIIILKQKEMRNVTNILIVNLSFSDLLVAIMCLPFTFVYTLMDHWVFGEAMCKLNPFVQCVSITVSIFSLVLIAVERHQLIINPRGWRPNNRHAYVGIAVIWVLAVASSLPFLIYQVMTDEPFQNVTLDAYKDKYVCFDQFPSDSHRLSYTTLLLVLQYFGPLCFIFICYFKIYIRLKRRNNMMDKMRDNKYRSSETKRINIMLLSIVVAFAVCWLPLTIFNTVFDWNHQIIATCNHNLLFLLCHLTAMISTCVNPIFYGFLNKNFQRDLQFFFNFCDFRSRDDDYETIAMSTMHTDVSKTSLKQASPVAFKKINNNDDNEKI

[28] = tested on: Vero; test: cells; assay type: functional, cell-based; conditions: Chlorocebus sabaeus
[29] = biological target: T4, Voltage-dependent T-type calcium channel subunit alpha-1H; test: human CACNA1H calcium influx blockade – cell-based, synthetic library set 1, calcium flux (AID 493022); assay type: functional
[30] = biological target: G2/mitotic-specific cyclin-B1 (Homo sapiens, UniProt P14635); test: HeLa cell cycle G2/M accumulation – FACS, mechanism study for Wee1 degradation inhibitor project, late-stage follow-up, panel member Cyclin B Degradation (AID 2088)
[31] = biological target: Wee1-like protein kinase (Homo sapiens, UniProt P30291); test: HeLa cell cycle G2/M accumulation – FACS, mechanism study for Wee1 degradation inhibitor project, late-stage follow-up, panel member Wee1 Degradation (AID 2088)

T4 sequence (O95180 whole entry): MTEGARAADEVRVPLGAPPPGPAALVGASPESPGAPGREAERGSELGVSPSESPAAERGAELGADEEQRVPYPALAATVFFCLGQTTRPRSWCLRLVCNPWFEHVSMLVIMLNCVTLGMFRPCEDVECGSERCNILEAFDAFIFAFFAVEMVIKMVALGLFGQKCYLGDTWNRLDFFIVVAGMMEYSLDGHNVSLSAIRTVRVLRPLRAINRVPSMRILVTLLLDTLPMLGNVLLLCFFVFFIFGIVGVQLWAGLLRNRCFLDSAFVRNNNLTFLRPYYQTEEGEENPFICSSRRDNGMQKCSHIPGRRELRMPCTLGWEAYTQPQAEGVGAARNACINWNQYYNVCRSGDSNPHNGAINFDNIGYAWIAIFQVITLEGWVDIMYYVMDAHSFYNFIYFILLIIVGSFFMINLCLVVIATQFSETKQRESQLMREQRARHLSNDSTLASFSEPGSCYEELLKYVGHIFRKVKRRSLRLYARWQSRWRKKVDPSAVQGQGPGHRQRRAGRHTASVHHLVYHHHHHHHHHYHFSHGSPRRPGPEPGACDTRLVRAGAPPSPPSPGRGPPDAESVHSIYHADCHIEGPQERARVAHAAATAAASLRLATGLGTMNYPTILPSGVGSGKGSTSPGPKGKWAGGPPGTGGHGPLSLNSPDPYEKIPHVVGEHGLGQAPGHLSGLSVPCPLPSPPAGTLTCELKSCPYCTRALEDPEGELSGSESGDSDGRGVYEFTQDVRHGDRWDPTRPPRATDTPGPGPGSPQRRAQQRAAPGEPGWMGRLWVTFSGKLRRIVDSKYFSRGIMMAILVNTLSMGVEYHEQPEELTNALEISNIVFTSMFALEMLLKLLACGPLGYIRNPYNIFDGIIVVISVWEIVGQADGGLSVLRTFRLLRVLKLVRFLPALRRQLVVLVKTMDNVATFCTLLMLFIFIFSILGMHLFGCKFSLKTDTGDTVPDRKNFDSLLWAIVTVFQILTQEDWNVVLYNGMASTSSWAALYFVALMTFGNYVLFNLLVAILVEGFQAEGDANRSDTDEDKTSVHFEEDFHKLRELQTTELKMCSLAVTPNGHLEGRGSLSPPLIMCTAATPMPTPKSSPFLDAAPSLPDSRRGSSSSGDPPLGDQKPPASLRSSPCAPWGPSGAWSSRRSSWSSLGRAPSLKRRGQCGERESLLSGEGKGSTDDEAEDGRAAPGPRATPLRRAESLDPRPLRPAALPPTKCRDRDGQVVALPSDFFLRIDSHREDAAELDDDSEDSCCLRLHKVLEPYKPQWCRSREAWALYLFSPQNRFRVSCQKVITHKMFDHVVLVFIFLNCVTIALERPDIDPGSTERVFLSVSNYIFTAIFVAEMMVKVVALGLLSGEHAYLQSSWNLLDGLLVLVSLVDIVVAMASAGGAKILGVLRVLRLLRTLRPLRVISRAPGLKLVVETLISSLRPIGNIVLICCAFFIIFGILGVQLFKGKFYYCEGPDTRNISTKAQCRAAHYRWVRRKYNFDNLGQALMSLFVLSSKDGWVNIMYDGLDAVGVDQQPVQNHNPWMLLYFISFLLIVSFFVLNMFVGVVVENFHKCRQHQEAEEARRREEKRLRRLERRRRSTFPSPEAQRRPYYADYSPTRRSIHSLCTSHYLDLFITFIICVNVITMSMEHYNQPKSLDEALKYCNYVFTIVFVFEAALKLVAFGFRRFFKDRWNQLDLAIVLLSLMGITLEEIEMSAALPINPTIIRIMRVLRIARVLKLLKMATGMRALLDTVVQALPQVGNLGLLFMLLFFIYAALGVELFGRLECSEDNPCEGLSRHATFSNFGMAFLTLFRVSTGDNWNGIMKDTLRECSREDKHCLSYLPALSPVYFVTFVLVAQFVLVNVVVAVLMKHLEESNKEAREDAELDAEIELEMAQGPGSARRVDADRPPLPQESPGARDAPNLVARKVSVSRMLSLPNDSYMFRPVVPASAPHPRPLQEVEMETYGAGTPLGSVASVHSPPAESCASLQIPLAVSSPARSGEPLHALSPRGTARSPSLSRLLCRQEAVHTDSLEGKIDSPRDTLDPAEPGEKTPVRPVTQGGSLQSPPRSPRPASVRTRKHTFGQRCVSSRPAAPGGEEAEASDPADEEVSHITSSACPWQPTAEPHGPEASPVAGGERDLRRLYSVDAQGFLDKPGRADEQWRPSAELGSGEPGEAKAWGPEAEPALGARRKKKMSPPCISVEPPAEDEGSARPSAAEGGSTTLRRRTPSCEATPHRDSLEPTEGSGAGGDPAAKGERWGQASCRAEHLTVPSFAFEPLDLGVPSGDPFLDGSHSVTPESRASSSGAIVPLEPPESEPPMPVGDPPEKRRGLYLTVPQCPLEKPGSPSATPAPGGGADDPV
Chain of Cyclin-dependent kinase 5/CDK5 activator 1 (Q00535 whole entry): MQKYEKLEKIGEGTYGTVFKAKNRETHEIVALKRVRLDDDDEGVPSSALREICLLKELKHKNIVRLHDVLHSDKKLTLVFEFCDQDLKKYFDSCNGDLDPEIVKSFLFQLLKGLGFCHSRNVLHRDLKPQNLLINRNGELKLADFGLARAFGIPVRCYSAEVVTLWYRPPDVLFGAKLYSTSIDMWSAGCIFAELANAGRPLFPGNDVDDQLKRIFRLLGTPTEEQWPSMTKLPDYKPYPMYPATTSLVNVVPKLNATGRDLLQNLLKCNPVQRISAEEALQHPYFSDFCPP
Chain of Cyclin-dependent kinase 5/CDK5 activator 1 (Q15078 whole entry, further chain): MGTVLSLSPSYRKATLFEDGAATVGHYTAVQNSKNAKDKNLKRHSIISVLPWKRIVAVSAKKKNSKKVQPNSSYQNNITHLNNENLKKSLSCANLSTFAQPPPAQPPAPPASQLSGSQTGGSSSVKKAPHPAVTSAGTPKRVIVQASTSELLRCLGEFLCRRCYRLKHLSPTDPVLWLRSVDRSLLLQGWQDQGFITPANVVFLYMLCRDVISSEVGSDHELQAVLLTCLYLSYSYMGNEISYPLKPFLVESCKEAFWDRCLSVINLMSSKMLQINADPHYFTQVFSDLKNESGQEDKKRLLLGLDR
Chain of G2/mitotic-specific cyclin-B1 (P14635 whole entry): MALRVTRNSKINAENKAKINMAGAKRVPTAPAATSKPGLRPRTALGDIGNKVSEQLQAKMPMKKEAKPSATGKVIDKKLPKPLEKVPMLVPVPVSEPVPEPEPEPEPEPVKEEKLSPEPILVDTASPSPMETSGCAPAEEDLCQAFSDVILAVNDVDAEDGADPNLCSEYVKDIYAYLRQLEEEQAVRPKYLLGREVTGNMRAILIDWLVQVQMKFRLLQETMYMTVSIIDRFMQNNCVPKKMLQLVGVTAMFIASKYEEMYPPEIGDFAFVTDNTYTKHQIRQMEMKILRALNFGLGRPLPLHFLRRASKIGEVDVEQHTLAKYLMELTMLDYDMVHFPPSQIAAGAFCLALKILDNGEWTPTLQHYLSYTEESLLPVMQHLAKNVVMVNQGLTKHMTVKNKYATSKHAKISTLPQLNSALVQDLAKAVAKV
Chain of FAD-linked sulfhydryl oxidase ALR (P55789 whole entry, the tested form may be a part): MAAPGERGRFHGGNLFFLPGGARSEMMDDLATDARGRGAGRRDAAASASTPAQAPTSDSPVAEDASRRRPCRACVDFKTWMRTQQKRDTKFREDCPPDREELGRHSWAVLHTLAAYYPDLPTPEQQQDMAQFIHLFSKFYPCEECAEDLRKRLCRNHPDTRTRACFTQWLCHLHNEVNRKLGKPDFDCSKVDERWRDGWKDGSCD
Chain of NACHT, LRR and PYD domains-containing protein 3 (Q96P20 whole entry, the tested form may be a part): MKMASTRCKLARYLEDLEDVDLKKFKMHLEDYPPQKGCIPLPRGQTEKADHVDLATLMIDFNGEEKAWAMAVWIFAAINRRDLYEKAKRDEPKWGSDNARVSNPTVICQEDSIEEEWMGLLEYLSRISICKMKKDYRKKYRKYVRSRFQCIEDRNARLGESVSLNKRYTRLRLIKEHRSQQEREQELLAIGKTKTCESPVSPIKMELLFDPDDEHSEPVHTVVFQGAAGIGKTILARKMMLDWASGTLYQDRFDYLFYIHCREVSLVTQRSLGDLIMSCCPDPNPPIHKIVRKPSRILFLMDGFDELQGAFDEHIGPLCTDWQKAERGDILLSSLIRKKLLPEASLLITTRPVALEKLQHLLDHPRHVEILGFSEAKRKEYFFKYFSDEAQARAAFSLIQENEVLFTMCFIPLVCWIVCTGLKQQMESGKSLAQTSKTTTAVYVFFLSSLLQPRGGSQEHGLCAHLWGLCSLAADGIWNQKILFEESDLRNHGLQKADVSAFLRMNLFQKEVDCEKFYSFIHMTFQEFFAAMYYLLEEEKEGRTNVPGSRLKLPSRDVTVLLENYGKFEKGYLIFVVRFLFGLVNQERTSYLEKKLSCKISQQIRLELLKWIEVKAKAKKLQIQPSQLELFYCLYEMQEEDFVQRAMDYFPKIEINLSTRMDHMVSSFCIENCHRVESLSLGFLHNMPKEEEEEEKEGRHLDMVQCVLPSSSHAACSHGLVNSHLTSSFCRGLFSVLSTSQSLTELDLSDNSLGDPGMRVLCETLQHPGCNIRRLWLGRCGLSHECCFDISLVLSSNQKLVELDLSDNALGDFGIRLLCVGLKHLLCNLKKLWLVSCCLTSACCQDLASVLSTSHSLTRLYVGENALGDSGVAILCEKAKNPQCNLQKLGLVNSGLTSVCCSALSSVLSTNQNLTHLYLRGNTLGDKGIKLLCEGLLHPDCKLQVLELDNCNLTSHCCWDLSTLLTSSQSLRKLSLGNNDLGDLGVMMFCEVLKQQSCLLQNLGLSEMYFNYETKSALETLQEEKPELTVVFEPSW
Chain of Neurotensin receptor type 1 (P30989 whole entry): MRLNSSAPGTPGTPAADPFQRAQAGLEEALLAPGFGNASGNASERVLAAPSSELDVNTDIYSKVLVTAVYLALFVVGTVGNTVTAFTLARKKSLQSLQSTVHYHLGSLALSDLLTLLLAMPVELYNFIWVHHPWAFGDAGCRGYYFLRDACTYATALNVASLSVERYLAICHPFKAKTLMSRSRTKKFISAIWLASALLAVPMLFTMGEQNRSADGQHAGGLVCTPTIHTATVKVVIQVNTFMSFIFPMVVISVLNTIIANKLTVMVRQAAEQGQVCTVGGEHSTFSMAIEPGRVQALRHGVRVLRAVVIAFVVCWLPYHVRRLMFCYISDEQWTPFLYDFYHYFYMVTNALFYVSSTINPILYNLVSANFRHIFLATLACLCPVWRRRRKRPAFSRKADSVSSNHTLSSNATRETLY

Brc1ccc(-n2cnc(-c3ccccc3)c2)cc1
IC50 [1]: 35.4 µM (active)
IC50 [2]: > 100 µM (inactive)

NS(=O)(=O)c1ccc(N2N=C(c3ccccc3)CC2c2ccccc2)cc1 (configuration not stated)
AC50 [3]: 66.6 µM (active)

CC(=O)N1CCOc2ccc(S(=O)(=O)N3CCCC(C)C3)cc21 (configuration not stated)
IC50 [4]: > 100 µM (inactive)

CN(C)CCCNc1cc(C(C)(C)C)nc2c(-c3ccc(Cl)cc3)cnn12
EC50 [5]: 12.5 µM (active)
IC50 [6]: 12.4 µM (active)
EC50 [7]: > 150 µM (not active)
EC50 [8]: 8.08 µM (active)
EC50 [9]: 1.91 µM (active)
IC50 [10]: > 66.6 µM (inactive)
CC50 [11]: 10.8 µM (active)
CC50 [12]: 11.4 µM (active)
CC50 [13]: 13 µM (active)
EC50 [14]: > 38 µM (not active)
IC50 [2]: > 100 µM (inactive)
IC50 [15]: > 20 µM (inactive)

COc1ccc(S(=O)(=O)Nc2c(C(=O)O)[nH]c3ccc(OC)cc23)c(OC)c1
AC50 [16]: 20.6 µM (active)

O=C(CN1CCC(n2nnc3cc(F)ccc32)CC1)Nc1ccc2c(c1)CCC2
EC50 [17]: 6.67 µM (active)
EC50 [18]: 5.76 µM (active)
CC50 [19]: > 50 µM (active)

O=C(O)c1cccc2c(-c3ccccc3)c(-c3ccccc3)[nH]c12
EC50 [7]: 15.6 µM (active)
AC50 [20]: 4.56 µM (active)
EC50 [8]: > 150 µM (not active)
EC50 [9]: 6.24 µM (active)
IC50 [21]: 16.8 µM (active)

O=C(/C=C/c1cccc(Cl)c1)c1nc2ccccc2[nH]1
EC50 [5]: 67 µM (inconclusive)
CC50 [22]: 12.1 µM (active)
EC50 [23]: 2.2 µM (active)
EC50 [24]: 2.16 µM (active)
EC50 [25]: 25.8 µM (inactive)
IC50 [26]: 5.08 µM (active)
IC50 [27]: 7.7 µM (active)
EC50 [14]: 2.34 µM (active)
IC50 [28]: > 25 µM (active)

Cc1ccc(-c2nnc(NC(=O)COc3ccccc3F)o2)cc1C
EC50 [29]: 2.3 µM (active)

COc1ccc(C)cc1NC(=O)CCCOc1cc(=O)n(C)c2ccccc12
EC50 [30]: > 49.7 µM (inactive)
EC50 [31]: > 49.7 µM (inactive)
